Test results from patent US20180201694A1, “CHITIN DERIVATIVES, METHOD FOR PRODUCTION AND USES THEREOF” (JAWAHARLAL NEHRU CENTRE FOR ADVANCED SCIENTIFIC RESEARCH …, priority 2013, published 2018).

Tests used:
Assay type in all cases: cell-based
E. coli = experiment: In-vitro antibacterial activity (MIC/MBC), coated 96-well plate; details: 10^5 CFU/mL, 37° C., 24 h, composite as (1c+AgPTS)
Procedure: (§1) Chitin derivatives were first dissolved in methanol (50 mg/mL) and the solutions were serially diluted. 20 μL of the solutions of different concentrations were added into wells of a 96-well plate. The solution was first air-dried and finally dried in vacuum oven to make a film onto the flat-bottom surface of wells of 96-well plate. Each concentration was applied in triplicate for all the samples to study the antibacterial activity. In order to make films on surfaces such as microscopic glass slide, methanolic solutions of polymer (350 μL) were spin coated onto the glass surface by using a spin coater. […] To prepare thin films, mixed solutions (350 μL) obtained from the solutions of these medically relevant polymers in chloroform and methanolic solution of the chitin derivatives (CHCl3: MeOH=9:1) were spin coated onto the glass surface and dried in air. For the biodegradation study, thin films of the chitin derivatives were prepared on microscopic cover glass.
(§2) To determine the antibacterial activity of the synthesized polymers, 200 μL of 10^5 CFU/mL of bacteria were added to the wells of 96-well plate coated with the chitin derivatives with different amounts. […] The data was then subjected to sigmoidal fitting.

S. aureus [1] = experiment: as above; details: 10^5 CFU/mL, 37° C., 24 h, composite as (1c+AgPTS)
Procedure: as §1, §2

S. aureus [2] = experiment: Antibacterial kinetics; details: coated at 6×MIC; followed upto 360 min
Procedure: A quantity of 200 μL of a solution containing approximately 4.9×10^5 CFU/mL of S. aureus in nutrient broth and 5.1×10^5 CFU/mL in Luria-Bertani (LB) broth were added, and the plates were kept in an incubated shaker at 37° C. The initial time of addition of the bacteria to the wells was taken as zero, and 10 μL aliquots were withdrawn from each of the wells at set time intervals. These aliquots were added immediately to 90 μL of 0.9% saline. These solutions were further diluted by a factor of 10, and 20 μL of all the dilutions was plated on nutrient or LB agar plates immediately. The plates were incubated at 37° C. for 24 h; and bacterial colonies were counted. A plot of CFU (Log10 CFU/mL) versus time was then plotted.
Antibacterial kinetics assay was performed similarly as mentioned earlier.

## Cc1ccc(S(=O)(=O)[O-])cc1.[Ag+] [AgPTS, silver para-toluene sulfonate]
E. coli
  MIC: 10 µg/mL
S. aureus [1]
  MIC: 39 µg/mL
S. aureus [2]
  Time at which S. aureus was killed: bacteriostatic
